{
  "source": "patent US8975251B2",
  "about": "“Methods of improving cognitive functions” (Bar-Ilan University, priority 2009, dated 2015)",
  "key": {"[1]": {"system": "PCP-induced reversal learning deficit", "experiment": "PCP-induced reversal learning task in rats", "format": "in vivo, rat", "source_text": "Antipsychotic drugs: BL-1020 (perphenazine 4-aminobutyrate, mesylate salt; BioLineRx Ltd., Israel; administered per os); risperidone (Sigma, UK; administered intra-peritoneally); and perphenazine (Sigma, Israel; administered per os).\nGABAA antagonists: picrotoxin (Sigma, UK; administered intra-peritoneally); and bicuculline (Sigma, UK; administered intra-peritoneally).\nFemale hooded-Lister rats (Charles River, UK) were housed in groups of five under standard laboratory conditions under a 12 hr diurnal cycle. Rats were maintained at approx 85% of free-feeding body weight average (250 grams) for the duration of the study.\nFollowing habituation to the operant chambers, rats were trained to respond for food on an FR1 (Fixed Ratio 1) schedule of reinforcement with active levers active, as described by Abdul-Monim et al. (J. Psychopharmacology 17: 57-65, 2003). When a proper response for food was established the rats were trained to press either the left or right lever (only one of levers was active) for food delivery. The active lever was varied from day to day using a pseudorandom Gellerman schedule, which randomly assigns either the left or right lever as active, thus avoiding generation of a lever bias. Each session lasted 20 minutes and counts were recorded on each lever.\nFollowing completion of the first phase of training (within about two weeks) the rats were trained to respond ter food according to the position of a visual cue (a lit LED). Half of the rats were trained to press the lever under the lit LED in order to receive a food reward. The other half of the rats were trained on the opposite contingency (i.e., to press the lever under the non-lit LED). Each training session began with illumination of the house-light. After three seconds both levers, together with the visual cue, were presented. The cue was presented for one second. […] The levers were then retracted and the house light was extinguished for a three-second time-out period, during which the pellet was consumed (if a correct response had been made). The house-light was then turned on again and the cycle repeated. Following 128 lever presses (which lasted approximately 30 minutes) the training session was terminated.\nEach rat had one training session per day. Rats were required to make at least 115 responses on the correct lever (90% correct responding) on at least three consecutive days (which was generally achieved within two weeks). The contingency (visual cue, i.e. LED on or off, relative to active lever) remained constant during this period, though the position of the active lever varied from day to day according to a pseudo-random Gellerman schedule.\nSubsequently, rats were trained until they again reached criterion on the opposite contingency (which was generally achieved within two weeks)). Rats achieved criterion at the same rate irrespective of whether they responded to one rule or the other. […]\nFollowing a 7 day drug (PCP)-free period the rats were treated with test agents (antipsychotic drugs and GABAA-receptor antagonists). Sixty minutes later the rats were exposed for five-minutes (“initial phase”) to the same contingency (cue position relative to active lever) as was during the operant training session and their responses (pressing on correct and incorrect levers) were recorded. Following a two-minutes recess the animals were exposed for five-minutes to a reversed contingency (“reversal phase”) during which their responses (pressing on correct and incorrect levers) were recorded. […]"}, "[2]": {"system": "patients having acute exacerbation of schizophrenia", "experiment": "Clinical trial, Brief Assessment of Cognition in Schizophrenia (BACS)", "format": "in vivo, human", "details": "for BACS mean change from baseline at Day 42, Mean (SD): 42 days; for BACS Difference in LS-mean vs. Risperidone (ANCOVA) / BACS Difference in LS-means vs. Placebo (ANCOVA): Day 42; for cognitive functions as compared to the placebo: schizophrenic patients, human clinical trial", "protocol": "The trial was conducted at forty sites located in the USA, Europe and India. For the trial 363 patients were recruited and randomized equally. Drugs (BL-1020, 10 mg/day; BL-1020, 20-30 mg/day; risperidone, 2-8 mg/day and placebo) have been administered to designated patients (double blinded) daily over a period of 42 days.\nKey secondary efficacy measures included the Clinical Global Impression of Severity (CGI-S), the Clinical Global Impression of Change (CGI-C) from baseline, and effect on cognition as measured by the Brief Assessment of Cognition in Schizophrenia (BACS). Risperidone at a dose of 2-8 mg was included as a positive control to validate the study results.\nAssessments of cognitive functions of treated patients have been performed on day zero (baseline) and on day 42 (end of study), using the test battery designed for use in patients with schizophrenia [Richard Keefe (Ed.), Brief Assessment of Cognition in Schizophrenia (BACS) Version 3.0, Duke University Medical Center, 1999; and Keefe et al., Schizophrenia Research, 68: 283-297, 2004]. The battery consists of brief assessments of processing speed, reasoning and problem solving and verbal and working memory. A composite score is obtained by summing the z-scores of six measures (verbal memory, digit sequencing, token motor task, fluency, symbol coding and Tower of London)."}},
  "note": "“Also recorded” adds a separate entry of the source. Structures can show the parent of a compound that is named as a salt.",
  "data": [
    {"molecule": "NCCCC(=O)OCCN1CCN(CCCN2c3ccccc3Sc3ccc(Cl)cc32)CC1", "note": "[BL-1020, 4-amino-butyric acid 2-{4-[3-(2-chloro-phenothiazin-10-yl)-propyl]piperazin-1-yl}-ethyl ester]", "values": [
      {"measurement": "effect on PCP-induced reversal learning deficit (percent correct response)", "setting": "[1]; BL-1020 3 mg/kg per os, 60 min before task, p<0.01, 3 mg/kg", "result": "significantly improved; also recorded: significant improvement"},
      {"measurement": "BACS test mean score at Baseline, Mean (SD)", "setting": "[2]; BL-1020 10 mg/day group, day 0, n = 90", "result": "16.7 (15.5)"},
      {"measurement": "BACS mean change from baseline at Day 42, Mean (SD)", "setting": "[2]; BL-1020 10 mg/day", "result": "5.1 (7.1)"},
      {"measurement": "BACS Difference in LS-mean vs. Risperidone (ANCOVA)", "setting": "[2]; BL-1020 10 mg/day", "result": 0.11},
      {"measurement": "BACS Difference in LS-means vs. Placebo (ANCOVA)", "setting": "[2]; BL-1020 10 mg/day", "result": 0.63},
      {"measurement": "BACS test mean score at Baseline, Mean (SD)", "setting": "[2]; BL-1020 30 mg/day group, day 0, n = 89", "result": "15.3 (15.5)"},
      {"measurement": "BACS mean change from baseline at Day 42, Mean (SD)", "setting": "[2]; BL-1020 30 mg/day", "result": "8.3 (8.5)"},
      {"measurement": "BACS Difference in LS-mean vs. Risperidone (ANCOVA)", "setting": "[2]; BL-1020 30 mg/day", "result": 3.40},
      {"measurement": "BACS Difference in LS-means vs. Placebo (ANCOVA)", "setting": "[2]; BL-1020 30 mg/day", "result": 3.92},
      {"measurement": "BACS score increase", "setting": "[2]; BL-1020 high dose 20-30 mg/day, after 42 days", "result": 8.3, "unit": "points"},
      {"measurement": "cognitive functions as compared to the placebo", "setting": "[2]", "result": "significantly improved"}
    ]},
    {"molecule": "c1ccc(C2(N3CCCCC3)CCCCC2)cc1", "note": "[PCP, phencyclidine hydrochloride]", "values": [
      {"measurement": "percent correct responding animals in the reversal learning task", "setting": "[1]; PCP 2 mg/kg intra-peritoneally twice daily for 7 days, p<0.01", "result": "significantly reduced"}
    ]},
    {"molecule": "Cc1nc2n(c(=O)c1CCN1CCC(c3noc4cc(F)ccc34)CC1)CCCC2", "note": "[Risperidone, risperidone, reference compound]", "values": [
      {"measurement": "BACS test mean score at Baseline, Mean (SD)", "setting": "[2]; Risperidone 8 mg/day group, day 0, n = 91", "result": "13.5 (12.3)"},
      {"measurement": "BACS mean change from baseline at Day 42, Mean (SD)", "setting": "[2]; Risperidone 8 mg/day", "result": "5.7 (6.2)"},
      {"measurement": "BACS Difference in LS-means vs. Placebo (ANCOVA)", "setting": "[2]; Risperidone 8 mg/day", "result": 0.52},
      {"measurement": "cognitive functions as compared to the placebo", "setting": "[2]", "result": "failed to improve cognitive functions"}
    ]},
    {"molecule": "OCCN1CCN(CCCN2c3ccccc3Sc3ccc(Cl)cc32)CC1", "note": "[perphenazine]", "values": [
      {"measurement": "effect on PCP-induced reversal learning deficit (percent correct response)", "setting": "[1]; perphenazine 2.49 mg/kg per os (equivalent to perphenazine moiety in 3 mg/kg BL-1020)", "result": "did not significantly improve; also recorded: failed to improve cognitive functions"}
    ]},
    {"molecule": "picrotoxin", "values": [
      {"measurement": "effect on BL-1020 improvement of PCP-induced reversal learning deficit", "setting": "[1]; picrotoxin 0.5 mg/kg co-administered with BL-1020 3 mg/kg, p<0.001", "result": "negated the BL-1020 effect"},
      {"measurement": "effect on PCP-induced reversal learning deficit (percent correct response)", "setting": "[1]; picrotoxin 0.25, 0.5 and 1 mg/kg intra-peritoneally", "result": "did not significantly improve"}
    ]}
  ]
}
